Laboratory results from patent US20230405143A1, “TYROSINE-BASED ANTIBODY CONJUGATES” (Synaffix B.V., priority 2020, published 2023).

Experiment: stability of linker-payload under acidic sample work-up and analysis (MS / RP-HPLC)
Format: physicochemical
Details: note to FIG. 26
Method: Note: *BCN-HS-PEG2-va-PABC-PBD is not stable under the acidic conditions used in sample work-up and analysis. Therefore, some peak broadening is observed, so conversion was determined by the amount of starting material left.
Prior to RP-HPLC analysis, IgG (10 μL, 1 mg/mL in PBS pH 7.4) was added to 12.5 mM DTT, 100 mM TrisHCl pH 8.0 (40 μL) and incubated for 15 minutes at 37° C. The reaction was quenched by adding 49% acetonitrile, 49% water, 2% formic acid (50 μL). RP-HPLC analysis was performed on an Agilent 1100 series (Hewlett Packard). The sample (10 μL) was injected with 0.5 mL/min onto Bioresolve RP mAb 2.1*150 mm 2.7 μm (Waters) with a column temperature of 70° C. A linear gradient was applied in 16.8 minutes from 30 to 54% acetonitrile in 0.1% TFA and water.
Prior to mass spectral analysis, IgG was treated with IdeS, which allows analysis of the Fc/2 fragment. For analysis of the Fc/2 fragment, a solution of 20 μg (modified) IgG was incubated for 1 hour at 37° C. with IdeS/Fabricator™ (1.25 U/μL) in PBS pH 6.6 in a total volume of 10 μL. Samples were diluted to 80 μL followed by analysis electrospray ionization time-of-flight (ESI-TOF) on a JEOL AccuTOF. Deconvoluted spectra were obtained using Magtran software.

BCN-HS-PEG2-va-PABC-PBD
stability under the acidic conditions used in sample work-up and analysis: not stable
